According to patent publication US7985455B2, “Polymerizable liquid crystal compound, liquid crystal composition, and polymer” (JNC Corporation, priority 2007, dated 2011):

Test: Solubility in PGMEA: deposition of crystals from a PGMEA solution allowed to stand at room temperature over night
Assay type: physicochemical
Conditions: 30% by weight PGMEA solution, room temperature (20° C.) over night
Protocol: The compound (1-8) was dissolved in PGMEA to prepare a 20% by weight PGMEA solution.
The compound (1-19) was dissolved in PGMEA to prepare a 20% by weight PGMEA solution.
The compound (1-42) was dissolved in PGMEA to prepare a 30% by weight PGMEA solution.
The compound (1-52) was dissolved in PGMEA to prepare a 30% by weight PGMEA solution.
The compound (M1-3) was dissolved in PGMEA to prepare a 10% by weight PGMEA solution. […] It is understood from the comparison between the result and Example 1 that the compound of the invention having an oxycarbonyloxy bonding group instead of an ether bond is excellent in solubility in PGMEA. Furthermore, it is understood from the comparison between Example 5 and Example 6 that the solubility in PGMEA is further enhanced by introducing an ether structure (—O—) to the alkylene in the side chain.

## C=CC(=O)OCCOCCOC(=O)Oc1ccc(C(=O)Oc2ccc3c(c2)C(C)c2cc(OC(=O)c4ccc(OC(=O)OCCOCCOC(=O)C=C)cc4)ccc2-3)cc1 [Compound 1-42]
  deposition of crystals from PGMEA solution: no deposition of crystals
